According to PubChem BioAssay AID1963449 (Molecular Pharmacology Branch, DTP, NCI, 2024):
Where “and” joins values, the source holds several entries; their conditions need not be identical. Equal entries are not always repeated. One block for each molecule: values may come before it.

Test system: 596521-263-R-J1-PDC complex spheroid growth
Experiment: Anticancer human tumor 596521-263-R-J1-PDC patient-derived soft tissue sarcoma cell line growth inhibition [Asc]
Settings: for viability, T/C: stronger effect = lower value
Method: Multicellular complex tumor spheroid response to apoptosis pathway targeting inhibitors Alrizomadlin, Pelcitoclax, and Dasminapant in combination with a variety of drugs and investigational agents in selected tumor cell lines
The MDM2 inhibitor alrizomadlin, the Bcl-2/Bcl-xL inhibitor pelcitoclax, and the IAPs inhibitor dasminapant were evaluated both individually and in combination with standard of care and investigational anticancer small molecules within a complex spheroid model of solid tumors. . Complex spheroids include a stromal component modeled by human endothelial cells (HUVEC) and fibroblasts modeled by human mesenchymal stem cells (MSCs). The concentration ranges selected for each drug and investigational agent were based upon clinically achievable concentrations if the clinical Cmax of the agent was known.
Compounds. The drugs and investigational agents: alrizomadlin (APG-115; NSC831270), pelcitoclax (APG-1252; NSC835773), dasminapant (APG-1387;NSC834197), TAK-243 (NSC785004), copanlisib (NSC809693), olaparib (NSC753686), talazoparib (NSC767125), cobimetinib (NSC 768068), eltanexor (KPT-8602, NSC 794443), abemaciclib (NSC 768073), sotorasib (NSC818433), adagrasib (NSC 831453), MRTX-1133 (NSC 836407), Iadademestat (ORY1001, NSC 806812), and RMC-4630 (NSC839698), were obtained from the NCI Developmental Therapeutics Program Chemical Repository. The FDA-approved anticancer drug set is available from the Developmental Therapeutics Program at https://dtp.cancer.gov/organization/dscb/obtaining/available plates.htm. […] The stock solutions were prepared in dimethyl sulfoxide (DMSO, Sigma-Aldrich, St. Louis, MO, cat. D2650) at 800-fold the tested concentration and stored at -70 degrees C prior to their use. All drugs and investigational agents were tested over a range starting from a high concentration at or near the clinical Cmax and decreasing in half-log increments. If the clinical Cmax for an agent had not been determined, the highest concentration tested was 10 microM.
The patient-derived cancer (PDC) cell lines include five colon adenocarcinomas: 186277-243-T-J2-PDC, 616215-338-R-J1-PDC, 439559-082-T-J2-PDC, 463943-066-T-J2-PDC, and 519858-162-T-J1-PDC; three pancreatic carcinomas: 323965-272-R-J2-PDC, 521955-158-R6-J3-PDC, and 521955-158-R2-J5-PDC; two uterine sarcomas: 327498-152-R-J2-PDC and 993429-296-R-J1-PDC; two rhabdomyosarcomas: 755483-174-R-J1-PDC and 772245-204-R-J1-PDC; two soft tissue sarcomas: 126254-015-R-J1-PDC and 494315-158-R-J1-PDC; two malignant fibrous histiocytomas: 317291-083-R-J1-PDC and 596521-263-R-J1-PDC; two breast carcinomas: 171881-019-R-J1-PDC and 885512-296-R-J2-PDC; and one ovarian carcinoma: 6556581-035-R-J-PDC were obtained from the NCI PDMR, (https://pdmr.cancer.gov). The established cell lines HSSY-2 synovial sarcoma (RRID:CVCL 8719), SYO-1 synovial sarcoma (RRID:CVCL_7146), MPNST malignant peripheral neural sheath tumor were obtained from the Sloan Kettering Institute. The following established cell lines were purchased from the American Type Culture Collection (ATCC, Manassas, VA), Sor the received from the NCI repository:, PANC-1 pancreatic carcinoma (CRL-1469, RRID:CVCL_0480), OVCAR-5 ovarian carcinoma (RRID:CVCL_1628), OVCAR-8 ovarian carcinoma (RRID:CVCL_1629), , MCF-7 breast carcinoma (CRL-12584, RRID:CVCL_0031), MDA-MB-231 breast carcinoma (CRL-12532, RRID:CVCL_0062), NCI-H1876 small cell lung carcinoma (CRL-5902, RRID:CVCL_1503), NCI-H510A small cell lung carcinoma (HTB-184, RRID:CVCL_1565), NCI-H1417 (CRL-5869, RRID:CVCL_1469), and NCI-H196 small cell lung carcinoma (CRL-5823, RRID:CVCL_1509). Dr. Peter Houghton (Greehey Children's Cancer Research Institute, University of Texas Health Science Center, San Antonio, TX) provided Rh-18 rhabdomyosarcoma (RRID:CVCL_1659). Pooled donor human umbilical vein endothelial cells (HUVEC, Lonza, cat. CC-2519) and human mesenchymal stem cells (hMSC, Lonza, cat. PT-2501) were purchased from Lonza (Walkersville, MD).
Cell Culture. […]

[1] = compound alone, run of 11/07/2022
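Also: spheroids exposed to compounds for 7 days.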

IC50 (curve of compound): > 10000 nM
Compound: C#Cc1c(F)ccc2cc(O)cc(-c3ncc4c(N5CC6CCC(C5)N6)nc(OCC56CCCN5CC(F)C6)nc4c3F)c12 (stereo not given)
viability, T/C (compound 0.0316 µM): 102% and 104% (2×) | viability, T/C (compound 0.1 µM): 87% and 90.2% and 98.9% | viability, T/C (compound 0.316 µM): 99.2% and 109% and 98.2% | viability, T/C (compound 1 µM): 102% (2×) and 112% | viability, T/C (compound 3.16 µM): 100% and 94.5% and 103% | viability, T/C (compound 10 µM): 93.4% and 85.1% and 88.1%

IC50 (curve of compound): 5270 nM and 4970 nM
Compound: C=C(F)C(=O)N1CCN(c2nc(OCC3CCCN3C)nc3c2CCN(c2cccc4cccc(Cl)c24)C3)CC1CC#N (stereo not given)
viability, T/C (compound 0.0316 µM): 95.8% and 100% | viability, T/C (compound 0.1 µM): 100% and 95.2% | viability, T/C (compound 0.316 µM): 98.3% and 103% | viability, T/C (compound 1 µM): 99.6% and 123% | viability, T/C (compound 3.16 µM): 89.5% and 80.2% | viability, T/C (compound 10 µM): 0.48% and 3.4%

IC50 (curve of compound): > 10000 nM
Compound: C=CC(=O)N1CCN(c2nc(=O)n(-c3c(C)ccnc3C(C)C)c3nc(-c4c(O)cccc4F)c(F)cc23)C(C)C1 (stereo not given)
viability, T/C (compound 0.0316 µM): 93.6% and 91.4% | viability, T/C (compound 0.1 µM): 101% and 93.4% | viability, T/C (compound 0.316 µM): 97.6% and 109% | viability, T/C (compound 1 µM): 108% and 112% | viability, T/C (compound 3.16 µM): 96.7% and 107% | viability, T/C (compound 10 µM): 78% and 88.9%

IC50 [1]: > 3000 nM | IC50 (curve of compound): > 3000 nM
Compound: CCN1C(C(=O)NC23CCC(C(=O)O)(CC2)CC3)C(c2cccc(Cl)c2F)C2(C(=O)Nc3cc(Cl)ccc32)C12CCCCC2 (stereo not given)
viability, T/C (compound 0.00949 µM): 103% [middle of 8 runs] | viability, T/C (compound 0.03 µM): 101% [middle of 8 runs] | viability, T/C (compound 0.0949 µM): 103% [middle of 8 runs] | viability, T/C (compound 0.3 µM): 105% [middle of 8 runs] | viability, T/C (compound 0.949 µM): 102% [middle of 8 runs] | viability, T/C (compound 3 µM): 95.7% [middle of 8 runs]

IC50 (curve of compound): > 1000 nM
Compound: CCN1CCN(Cc2ccc(Nc3ncc(F)c(-c4cc(F)c5nc(C)n(C(C)C)c5c4)n3)nc2)CC1
viability, T/C (compound 0.00316 µM): 99.1% and 89.3% and 99.2% | viability, T/C (compound 0.01 µM): 103% and 87.3% and 82% | viability, T/C (compound 0.0316 µM): 96.3% and 101% and 86.1% | viability, T/C (compound 0.1 µM): 97.9% and 93.3% and 105% | viability, T/C (compound 0.316 µM): 96.8% and 101% and 92% | viability, T/C (compound 1 µM): 79.4% and 77.1% and 87.2%

IC50 (curve of compound): > 1000 nM
Compound: CNC(C)C(=O)NC1CN(S(=O)(=O)c2cccc(S(=O)(=O)N3CCC4CCC(C(=O)NC(c5ccccc5)c5ccccc5)N4C(=O)C(NC(=O)C(C)NC)C3)c2)CCC2CCC(C(=O)NC(c3ccccc3)c3ccccc3)N2C1=O (stereo not given)
viability, T/C (compound 0.0316 µM): 89.6% [middle of 6 runs] | viability, T/C (compound 0.1 µM): 87.5% [middle of 6 runs] | viability, T/C (compound 1 µM): 77.4% [middle of 6 runs]

IC50 (curve of compound): 254 nM and 188 nM
Compound: COc1c(OCCCN2CCOCC2)ccc2c3n(c(=NC(=O)c4cnc(N)nc4)nc12)CCN3
viability, T/C (compound 0.00316 µM): 98.3% and 95.9% | viability, T/C (compound 0.01 µM): 88% and 87.8% | viability, T/C (compound 0.0316 µM): 71.1% and 82.2% | viability, T/C (compound 0.1 µM): 68% and 61.7% | viability, T/C (compound 0.316 µM): 44.1% and 40% | viability, T/C (compound 1 µM): 31.9% and 28.1%

IC50 [1]: > 10000 nM
Compound: Cc1c(S(C)(=O)=O)c(-c2cc(F)cc(N3CCN(c4ccc(NS(=O)(=O)c5ccc(NC(CCN6CCC(C(=O)OCCCP(=O)(O)O)CC6)CSc6ccccc6)c(S(=O)(=O)C(F)(F)F)c5)cc4)CC3)c2)c(-c2ccc(Cl)cc2)n1C(C)C (stereo not given)
viability, T/C (compound 0.0316 µM): 101% [middle of 7 runs] | viability, T/C (compound 0.1 µM): 93.1% [middle of 7 runs] | viability, T/C (compound 0.316 µM): 91.5% [middle of 7 runs] | viability, T/C (compound 1 µM): 77.7% [middle of 7 runs] | viability, T/C (compound 3.16 µM): 63% [middle of 7 runs] | viability, T/C (compound 10 µM): 55.6% [middle of 7 runs]

IC50 (curve of compound): > 3000 nM
Compound: Cc1nc(N2CCC3(CC2)COC(C)C3N)c(CO)nc1Sc1ccnc(N)c1Cl (stereo not given)
viability, T/C (compound 0.00949 µM): 92.9% and 104% and 105% | viability, T/C (compound 0.03 µM): 105% and 93.2% and 112% | viability, T/C (compound 0.0949 µM): 95.7% and 91.3% and 95.2% | viability, T/C (compound 0.3 µM): 96.7% and 100% and 87% | viability, T/C (compound 0.949 µM): 88.2% and 85.2% and 73.8% | viability, T/C (compound 3 µM): 64.9% and 62.4% and 62.7%

IC50 (curve of compound): > 100 nM
Compound: Cn1ncnc1[C@H]1c2n[nH]c(=O)c3cc(F)cc(c23)N[C@@H]1c1ccc(F)cc1
viability, T/C (compound 0.000316 µM): 95.5% and 111% and 105% | viability, T/C (compound 0.001 µM): 101% and 97% and 98.5% | viability, T/C (compound 0.00316 µM): 97.5% and 93.9% and 87.1% | viability, T/C (compound 0.01 µM): 87.1% and 98% and 103% | viability, T/C (compound 0.0316 µM): 105% and 96.6% and 94.3% | viability, T/C (compound 0.1 µM): 79.6% and 84.5% and 82.6%

Compound: NC(=O)C(=Cn1cnc(-c2cc(C(F)(F)F)cc(C(F)(F)F)c2)n1)c1cncnc1
viability, T/C (compound 0.000949 µM): 104% and 98.5% and 48.5% | viability, T/C (compound 0.003 µM): 91.6% and 94.9% and 49.6% | viability, T/C (compound 0.00949 µM): 87.5% and 83.8% and 46.9% | viability, T/C (compound 0.03 µM): 58.5% and 51.1% and 32.2% | viability, T/C (compound 0.0949 µM): 18.1% and 18.5% and 16.5% | viability, T/C (compound 0.3 µM): 11.2% and 10.3% and 10%

IC50 (curve of compound): > 100 nM
Compound: NC1CCC(NC2CC2c2ccccc2)CC1 (stereo not given)
viability, T/C (compound 0.000316 µM): 92.5% and 90.7% | viability, T/C (compound 0.001 µM): 87% and 79.9% | viability, T/C (compound 0.00316 µM): 90% and 91.5% | viability, T/C (compound 0.01 µM): 95.4% and 94.3% | viability, T/C (compound 0.0316 µM): 99.2% and 85.7% | viability, T/C (compound 0.1 µM): 88.1% and 89.4%

IC50 (curve of compound): > 10000 nM
Compound: O=C(c1cc(Cc2n[nH]c(=O)c3ccccc23)ccc1F)N1CCN(C(=O)C2CC2)CC1
viability, T/C (compound 0.0316 µM): 102% and 103% and 85.9% | viability, T/C (compound 0.1 µM): 101% (2×) and 93.1% | viability, T/C (compound 0.316 µM): 94.2% and 92.7% and 111% | viability, T/C (compound 1 µM): 90.9% and 103% and 93.6% | viability, T/C (compound 3.16 µM): 89.6% and 92.4% and 71.7% | viability, T/C (compound 10 µM): 59.9% and 61.9% and 50.4%

IC50 (curve of compound): 314 nM and 867 nM and 412 nM
Compound: O=C(c1ccc(F)c(F)c1Nc1ccc(I)cc1F)N1CC(O)([C@@H]2CCCCN2)C1
viability, T/C (compound 0.00316 µM): 107% and 99.7% and 89.7% | viability, T/C (compound 0.01 µM): 95.2% and 94.7% and 92% | viability, T/C (compound 0.0316 µM): 98.4% and 88.8% and 92.9% | viability, T/C (compound 0.1 µM): 75.9% and 77.3% and 84.2% | viability, T/C (compound 0.316 µM): 50.1% and 56% and 54.9% | viability, T/C (compound 1 µM): 34.9% and 49.8% and 34%
